Earlier results on 1 molecule are cited in patent US7365075B2, “Aryl sulfonamide compounds and uses related thereto” (Amgen Inc., priority 2003, dated 2008).

Consider `CC1(C)[C@@H](OC(=O)CCC(=O)O)CC[C@]2(C)[C@H]3C(=O)C=C4[C@@H]5C[C@@](C)(C(=O)O)CC[C@]5(C)CC[C@@]4(C)[C@]3(C)CC[C@@H]12` [carbenoxolone], for which the “reduction of the intraocular pressure” value in the series with normal patients is on record as 20%. The hepatic insulin sensitivity entry with humans is “improved hepatic insulin sensitivity”. The “detrimental effects of glucocorticoids on bone nodule formation” value in the series on bone nodule formation was “lessened”.
